Measurements published in the OligoGym collection.
Values joined by “and” are separate entries in the source; they are usually repeats but may differ in a detail not shown here. Equal values may be shown once. After the bases stand the sugars from the 5' end (letter, count) and the backbone: PS all phosphorothioate, else s phosphorothioate and o phosphodiester by linkage. Methylation of C is not given here. e = 2'-O-(2-methoxyethyl) (MOE); k = constrained ethyl (cEt); d = 2'-deoxy (DNA)

Biological target: IRF4
Details: ASO

## GGCAACCATTTTCACA (sugars k3 d10 k3, PS)
SK-MEL-28, 4 µM
  target mRNA inhibition: -17%

## CAGATTTACACCGTTG (sugars k3 d10 k3, PS)
MM.1R, 1 µM
  target mRNA inhibition: 15%

## AAACACCTCAGCTGAC (sugars k3 d10 k3, PS)
SK-MEL-28, 4 µM
  target mRNA inhibition: 16%

## TCATACCCAATAGTCT (sugars k3 d10 k3, PS)
SK-MEL-28, 4 µM
  target mRNA inhibition: 52%

## TCAAATCGACTGCCAC (sugars k3 d10 k3, PS)
SK-MEL-28, 4 µM
  target mRNA inhibition: 54%

## GAAGTTTACACTGGAT (sugars kkdddddddddkekek, PS)
MM.1R, 0.074 µM
  target mRNA inhibition: 6%
MM.1R, 0.222 µM
  target mRNA inhibition: 22%
MM.1R, 0.666 µM
  target mRNA inhibition: 49%
MM.1R, 1 µM
  target mRNA inhibition: 55%
MM.1R, 2 µM
  target mRNA inhibition: 75%

## CCTCAGTTTGTGAAGC (sugars kdddddddddkekeke, PS)
MM.1R, 1 µM
  target mRNA inhibition: 11%

## GCGCAAAACCCCTCAA (sugars k3 d10 k3, PS)
SK-MEL-28, 4 µM
  target mRNA inhibition: 22%

## ACCTTATGCTTGGCTC (sugars k4 d8 k4, PS)
SK-MEL-28, 4 µM
  target mRNA inhibition: 30%

## AGCTTAGTTATCTGGG (sugars k3 d10 k3, PS)
SK-MEL-28, 4 µM
  target mRNA inhibition: 54% and 59%

## GATGAGAATTCCAAAC (sugars k3 d10 k3, PS)
MM.1R, 0.0625 µM
  target mRNA inhibition: -1%
MM.1R, 0.074 µM
  target mRNA inhibition: 0%
MM.1R, 0.222 µM
  target mRNA inhibition: 2%
MM.1R, 0.25 µM
  target mRNA inhibition: 2%
MM.1R, 0.666 µM
  target mRNA inhibition: 0%
MM.1R, 1 µM
  target mRNA inhibition: 14%
MM.1R, 2 µM
  target mRNA inhibition: 32%
MM.1R, 4 µM
  target mRNA inhibition: 36%
SK-MEL-28, 4 µM
  target mRNA inhibition: 84%

## TCTATAGTGTTCCAGG (sugars kkkdddddddddkeke, PS)
MM.1R, 0.074 µM
  target mRNA inhibition: 22%
MM.1R, 0.222 µM
  target mRNA inhibition: 34%
MM.1R, 0.666 µM
  target mRNA inhibition: 56%
MM.1R, 1 µM
  target mRNA inhibition: 68%
MM.1R, 2 µM
  target mRNA inhibition: 81%

## GTGACTTAATTCTGGG (sugars k3 d10 k3, PS)
SK-MEL-28, 4 µM
  target mRNA inhibition: 51%

## TCACAAAGCGGGTTCA (sugars k3 d10 k3, PS)
SK-MEL-28, 4 µM
  target mRNA inhibition: 23%

## GATCGAGCGGTGAAAC (sugars k3 d10 k3, PS)
SK-MEL-28, 4 µM
  target mRNA inhibition: 23%

## CCCGAGGCCGGAGACC (sugars k3 d10 k3, PS)
SK-MEL-28, 4 µM
  target mRNA inhibition: 6%

## GAGCCAACTTATAGCA (sugars k3 d10 k3, PS)
MM.1R, 1 µM
  target mRNA inhibition: 11% and 8%

## GTGTGCTTGCCAAGCC (sugars kkddddddddddkeke, PS)
MM.1R, 1 µM
  target mRNA inhibition: 37% and 47%

## GTCTCTCACGCAGTGC (sugars k3 d10 k3, PS)
SK-MEL-28, 4 µM
  target mRNA inhibition: 50%

## ATACATGTCTGGTTTA (sugars k3 d10 k3, PS)
MM.1R, 1 µM
  target mRNA inhibition: 4%

## GTCACAAAGCAATTGA (sugars k3 d10 k3, PS)
SK-MEL-28, 4 µM
  target mRNA inhibition: 67%

## CTAGATTCTCCCTGCA (sugars k3 d10 k3, PS)
SK-MEL-28, 4 µM
  target mRNA inhibition: 34%

## CTTGCCAGTGGTGGCC (sugars k4 d8 k4, PS)
SK-MEL-28, 4 µM
  target mRNA inhibition: -9%

## TTTATGAGCTTCCACA (sugars k3 d10 k3, PS)
SK-MEL-28, 4 µM
  target mRNA inhibition: 54%

## CCTCAGACTGTGCTGC (sugars k3 d10 k3, PS)
SK-MEL-28, 4 µM
  target mRNA inhibition: 30%

## GTGCAGTTCCGTAGTC (sugars k3 d10 k3, PS)
SK-MEL-28, 4 µM
  target mRNA inhibition: 21%

## GAACAGGACCTGGTCC (sugars k3 d10 k3, PS)
SK-MEL-28, 4 µM
  target mRNA inhibition: 25%

## GCACGGACGAACGCGC (sugars k3 d10 k3, PS)
SK-MEL-28, 4 µM
  target mRNA inhibition: 23%

## AAAAACTTGGGTCACT (sugars k3 d10 k3, PS)
SK-MEL-28, 4 µM
  target mRNA inhibition: -19%

## CACTGAGGCCTTAATG (sugars k3 d10 k3, PS)
SK-MEL-28, 4 µM
  target mRNA inhibition: 34%

## AATGTGTATTACTCTT (sugars k2 d9 e3 k2, PS)
MM.1R, 1 µM
  target mRNA inhibition: 15% and 17%

## ATTTTTTGGTTAGTCC (sugars k3 d10 k3, PS)
SK-MEL-28, 4 µM
  target mRNA inhibition: 53%

## TGCGGCTCCGGCGACG (sugars k3 d10 k3, PS)
MM.1R, 1 µM
  target mRNA inhibition: -20%

## GCAAGTTTTCTCTGTC (sugars k3 d10 k3, PS)
SK-MEL-28, 4 µM
  target mRNA inhibition: 56%

## GCAAGTGTCTTCCACA (sugars k3 d10 k3, PS)
SK-MEL-28, 4 µM
  target mRNA inhibition: 77%

## AGCCCTTACCTCGCCC (sugars k3 d10 k3, PS)
SK-MEL-28, 4 µM
  target mRNA inhibition: 25%

## CTTAGAATGCATAACA (sugars k3 d10 k3, PS)
SK-MEL-28, 4 µM
  target mRNA inhibition: 26%

## CATAACTCAGGCAAGG (sugars k3 d10 k3, PS)
SK-MEL-28, 4 µM
  target mRNA inhibition: 36%

## GTTCAGAAACCCTCAT (sugars k3 d10 k3, PS)
SK-MEL-28, 4 µM
  target mRNA inhibition: 13%

## TCTTGTGGACACTTTT (sugars k3 d10 k3, PS)
SK-MEL-28, 4 µM
  target mRNA inhibition: 65%

## CAAAAGTGCCACAACT (sugars k3 d10 k3, PS)
SK-MEL-28, 4 µM
  target mRNA inhibition: 10%

## TCTCAGCAAAACGCAG (sugars k3 d10 k3, PS)
SK-MEL-28, 4 µM
  target mRNA inhibition: 27%

## ACCGATGCTTCAAGAC (sugars k3 d10 k3, PS)
MM.1R, 1 µM
  target mRNA inhibition: 31% and 56%

## AAGTTCATGTAAAGTC (sugars k3 d10 k3, PS)
MM.1R, 1 µM
  target mRNA inhibition: 43% and 41%

## AAGTGTCTAAAGTCCC (sugars kkdddddddddkekek, PS)
MM.1R, 1 µM
  target mRNA inhibition: 12% and 22%

## GCCAAAGTGACTTAAT (sugars k3 d10 k3, PS)
SK-MEL-28, 4 µM
  target mRNA inhibition: 70%

## AAGTTCATGTAAAGTC (sugars k2 d9 e3 k2, PS)
MM.1R, 1 µM
  target mRNA inhibition: 21% and 3%

## TAAAACCTCATCCCCT (sugars k3 d10 k3, PS)
SK-MEL-28, 4 µM
  target mRNA inhibition: -26%

## GCTACGCAATCTTCTG (sugars k3 d10 k3, PS)
SK-MEL-28, 4 µM
  target mRNA inhibition: 58%

## GCCTTGGACGGCCCCG (sugars k3 d10 k3, PS)
SK-MEL-28, 4 µM
  target mRNA inhibition: 23%

## ACTGACTAACAGGGAG (sugars k3 d10 k3, PS)
SK-MEL-28, 4 µM
  target mRNA inhibition: 49%

## GTCAAACCCTACTGGG (sugars k3 d10 k3, PS)
SK-MEL-28, 4 µM
  target mRNA inhibition: 31%

## GAAACCGCTGGCAGGT (sugars k3 d10 k3, PS)
SK-MEL-28, 4 µM
  target mRNA inhibition: 50%

## AGTACTTGGACAGAAG (sugars k3 d10 k3, PS)
SK-MEL-28, 4 µM
  target mRNA inhibition: 43%

## CACCAAGGTCCAGAGT (sugars k3 d10 k3, PS)
SK-MEL-28, 4 µM
  target mRNA inhibition: 20%

## CCATTAGAAAAGCAGG (sugars k3 d10 k3, PS)
SK-MEL-28, 4 µM
  target mRNA inhibition: 80% and 78%

## GGTCAACACTTGGAGA (sugars k3 d10 k3, PS)
MM.1R, 1 µM
  target mRNA inhibition: -23%

## GTACTTGCCGCTGTCG (sugars k4 d8 k4, PS)
SK-MEL-28, 4 µM
  target mRNA inhibition: 36%

## GGCATCATGTAGTTGT (sugars k3 d10 k3, PS)
MM.1R, 1 µM
  target mRNA inhibition: -1%

## CAGTCAAAGATTCATT (sugars k3 d10 k3, PS)
SK-MEL-28, 4 µM
  target mRNA inhibition: 40%

## TTTATGTTAGCCAATT (sugars kdddddddddkekeke, PS)
MM.1R, 1 µM
  target mRNA inhibition: 5% and 14%

## ATTCTTGAATAGAGGA (sugars k3 d10 k3, PS)
MM.1R, 1 µM
  target mRNA inhibition: 16%

## CCGAACTCTCCGCCTC (sugars k3 d10 k3, PS)
SK-MEL-28, 4 µM
  target mRNA inhibition: 36%

## CACTATTCGAGAGAAA (sugars k3 d10 k3, PS)
MM.1R, 1 µM
  target mRNA inhibition: 30%

## CACTATTAAACAGCAC (sugars k3 d10 k3, PS)
SK-MEL-28, 4 µM
  target mRNA inhibition: 19%

## CTATAGTGTTCCAGGA (sugars k3 d9 k3 e1, PS)
MM.1R, 1 µM
  target mRNA inhibition: 31%

## CGCAGAGCCAGTAGGG (sugars k3 d10 k3, PS)
SK-MEL-28, 0.185 µM
  target mRNA inhibition: 16% and 4% and 12%
SK-MEL-28, 4 µM
  target mRNA inhibition: 67%
SK-MEL-28, 5 µM
  target mRNA inhibition: 56% and 59% and 77%
SK-MEL-28, 15 µM
  target mRNA inhibition: 81% and 82% and 91%

## GGGAATCCTTAATTAT (sugars k3 d10 k3, PS)
SK-MEL-28, 4 µM
  target mRNA inhibition: 12%

## ACGTGTGCTTGCCAAG (sugars kddddddddddkekek, PS)
MM.1R, 1 µM
  target mRNA inhibition: 47% and 37%

## CTTGTTCAAAGCGCAC (sugars k3 d10 k3, PS)
SK-MEL-28, 4 µM
  target mRNA inhibition: 32%

## ACCTACACAGGCTAAT (sugars k3 d10 k3, PS)
MM.1R, 1 µM
  target mRNA inhibition: -4%

## TGTGTATTACTCTTAG (sugars kkdddddddddkekek, PS)
MM.1R, 0.0625 µM
  target mRNA inhibition: 19%
MM.1R, 0.25 µM
  target mRNA inhibition: 32%
MM.1R, 4 µM
  target mRNA inhibition: 85%

## CACTGGCATCGAGACG (sugars k3 d10 k3, PS)
SK-MEL-28, 4 µM
  target mRNA inhibition: 61%
